43 compounds from patent US8263636B2, “Dual alanyl aminopeptidase and dipeptidyl peptidase iv inhibitors for functionally influencing different cells and for treating immunological inflammatory, neuronal and other diseases” (IMTM GmbH, priority 2003, dated 2012) can be followed below.

Read-outs that look alike come from different tables or passages of the source.

Experiment [1] has as its target dipeptidyl peptidase IV (DPIV) (Homo sapiens, UniProt P27487). The experiment can be described thus: Inhibition of dipeptidyl peptidase IV enzymatic activity, fluorogenic substrate (Ala-Pro)2-rhodamine. Format: biochemical. The protocol:
(§1) The inhibition characteristics measured are referred to as IC-50 values or ID50 values (the lafter marked with “*”) for both enzymes. The enzymatic activity was determined by means of the fluorogenic substrates/products (Ala-Pro)2-rhodamine and (Ala)2-rhodamine.

For experiment [2], the target named is alanyl aminopeptidase (APN) (Homo sapiens, UniProt P15144). The experiment can be described thus: Inhibition of alanyl aminopeptidase enzymatic activity, fluorogenic substrate (Ala)2-rhodamine. Format: biochemical. The procedure: as §1
Chain of alanyl aminopeptidase (APN) (P15144 whole entry, species assumed): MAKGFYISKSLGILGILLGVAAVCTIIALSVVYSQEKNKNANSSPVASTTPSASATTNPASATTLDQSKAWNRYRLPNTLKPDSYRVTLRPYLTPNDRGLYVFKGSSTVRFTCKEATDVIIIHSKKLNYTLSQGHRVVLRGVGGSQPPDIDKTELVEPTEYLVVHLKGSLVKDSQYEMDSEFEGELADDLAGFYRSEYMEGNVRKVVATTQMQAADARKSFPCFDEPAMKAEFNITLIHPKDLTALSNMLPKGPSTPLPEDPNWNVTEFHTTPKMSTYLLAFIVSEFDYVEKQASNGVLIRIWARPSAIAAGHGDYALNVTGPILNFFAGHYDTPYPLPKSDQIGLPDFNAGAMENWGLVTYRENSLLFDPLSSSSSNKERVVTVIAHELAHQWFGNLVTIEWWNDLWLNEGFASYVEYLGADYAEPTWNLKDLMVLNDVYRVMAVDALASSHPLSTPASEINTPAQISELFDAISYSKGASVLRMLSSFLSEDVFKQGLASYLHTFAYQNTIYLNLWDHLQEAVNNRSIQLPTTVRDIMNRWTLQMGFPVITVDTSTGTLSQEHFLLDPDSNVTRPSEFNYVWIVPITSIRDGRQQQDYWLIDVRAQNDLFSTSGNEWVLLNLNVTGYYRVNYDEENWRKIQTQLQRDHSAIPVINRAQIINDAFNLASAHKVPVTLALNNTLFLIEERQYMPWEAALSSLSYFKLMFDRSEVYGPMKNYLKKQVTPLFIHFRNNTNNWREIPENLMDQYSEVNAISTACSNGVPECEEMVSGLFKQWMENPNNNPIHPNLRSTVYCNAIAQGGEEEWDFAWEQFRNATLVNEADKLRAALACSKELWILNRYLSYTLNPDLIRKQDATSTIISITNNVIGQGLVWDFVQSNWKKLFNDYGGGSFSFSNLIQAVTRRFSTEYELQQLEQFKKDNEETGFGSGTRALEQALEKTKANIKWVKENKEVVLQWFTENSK
Experiment [3] relates to dextran sulfate-induced colitis. The experiment can be described thus: Dextran sulfate-induced colitis of mice. The note with it: 10 μg single inhibitor i.p. on three successive days from day 5; day 7; insignificant; FIG. 2. Format: in vivo, female Balb/c mice.
Experiment [4] deals with ovalbumine-induced asthma bronchiale. The experiment can be described thus: Ovalbumine-induced asthma bronchiale of mice. Format: in vivo, female Balb/c mice. Particulars: i.p. 0.1 mg of each inhibitor, days 28-35; ovalbumine challenge day 35; FIG. 3A. The protocol:
Female Balb/c mice were sensitized for the antigen ovalbumine capable of inducing asthma bronchiale by an intreperitoneal administration of 10 μg ovalbumine on the days 0, 14 and 21. On day 27/28, the animals received a boostering dose of ovalbumine by inhalation [vD3]. After an intreperitoneal administration of the peptidase inhibitors on the days 28-35, there was effected an intranasal ovalbumine challenge on day 35, as well as a check of the allergic premature reaction via the pulmonal function. There were measured: the average expiratory flux (EF50), the tidal volume, the respiration rate and the minute volume as well as the number of eosinophilic granulocytes in the bronchoalveolar lavage. 8 to 10 animals were used per experimental group. By way of example, in FIG. 3A, there is summarized the effect of the peptidase inhibitors on the reduction of the EF50 value.

The mark [5] stands for this setting: first value of cell DPIV/APN, unmarked = IC-50, read-out: IC50 DPIV.
Where [6] appears, read: Table 8, first value of cell, unmarked = IC-50, read-out: IC50 DPIV.
Setting [7] is: second value of cell DPIV/APN, unmarked = IC-50, read-out: IC50 APN.
The mark [8] stands for this setting: second value of cell DPIV/APN, marked * = ID50 value, read-out: ID50 APN (marked with *).

Chain of dipeptidyl peptidase IV (DPIV) (P27487 whole entry, species assumed): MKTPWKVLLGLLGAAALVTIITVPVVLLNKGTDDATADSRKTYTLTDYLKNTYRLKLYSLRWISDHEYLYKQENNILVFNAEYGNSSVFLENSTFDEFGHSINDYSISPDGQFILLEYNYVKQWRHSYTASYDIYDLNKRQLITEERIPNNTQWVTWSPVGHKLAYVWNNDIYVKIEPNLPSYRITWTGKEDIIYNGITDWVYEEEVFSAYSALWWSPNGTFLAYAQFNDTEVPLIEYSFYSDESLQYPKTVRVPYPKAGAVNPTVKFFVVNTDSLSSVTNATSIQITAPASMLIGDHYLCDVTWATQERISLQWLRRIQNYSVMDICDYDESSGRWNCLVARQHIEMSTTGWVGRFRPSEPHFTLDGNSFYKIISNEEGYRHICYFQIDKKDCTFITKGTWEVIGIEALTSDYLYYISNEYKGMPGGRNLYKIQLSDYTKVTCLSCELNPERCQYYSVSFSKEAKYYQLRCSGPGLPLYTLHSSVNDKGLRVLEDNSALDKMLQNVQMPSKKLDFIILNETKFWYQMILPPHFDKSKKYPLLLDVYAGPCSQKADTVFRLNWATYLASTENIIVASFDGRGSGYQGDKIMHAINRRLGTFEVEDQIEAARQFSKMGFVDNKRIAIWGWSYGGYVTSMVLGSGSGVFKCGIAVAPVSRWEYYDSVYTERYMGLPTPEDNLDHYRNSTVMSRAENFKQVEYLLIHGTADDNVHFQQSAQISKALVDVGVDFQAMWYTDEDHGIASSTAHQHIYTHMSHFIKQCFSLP

`Cc1[nH]c2ccccc2c1C(c1ccccn1)N1CCCC1` (centres unmarked) [Compound C4.011]: the IC50 in experiment [1] (setting [5]) came out at 170 µM.

With `COC(=O)C1=C(N)N2C(=O)CSC2=C(C(=O)OC(C)C)C1` [Compound C8.003], in experiment [1] (setting [6]), the IC50 is 10.8 µM.

Consider `CC(C)OC(=O)C1=C(N)N2C(=O)CSC2=C(C(=O)OC(C)C)C1` [Compound C16.007], for which the IC50 in experiment [1] (setting [5]) turned out to be 79 µM; in experiment [2] (setting [7]), 75 µM.

With `Cc1[nH]c2ccccc2c1C(c1cc(Cl)ccc1O)N1CCOCC1` (centres unmarked) [Compound C4.002], the IC50 in experiment [2] (setting [7]) was 11.8 µM.

As for `COC(=O)C1=c2s/c(=C\c3cccc(OC)c3)c(=O)n2C(N)=C(S(=O)(=O)c2ccccc2)C1c1cccc(OC)c1` (centres unmarked) [Compound C16.009], the IC50 in experiment [1] (setting [5]) stood at 140 µM.

With `COc1ccc(N2C(=O)c3ccc(Oc4ccc(N5C(=O)c6ccc(C(=O)O)cc6C5=O)cc4)cc3C2=O)cc1` [Compound C12.001], the IC50 turned out to be 20.6 µM in experiment [1] (setting [5]) and 14.8 µM in experiment [2] (setting [7]).

With `COc1cc(Br)c(OCC(=O)N/N=C/c2cc(Br)c(O)c(O)c2Br)c(Br)c1` [Compound C2.003], in experiment [2] (setting [8]), the IC50 is 5.4 µM.

On to `COc1ccccc1N1C(=O)c2ccc(Oc3ccc(NC(=O)CCS(=O)(=O)c4ccc(C)cc4)cc3)cc2C1=O` [Compound C10.015], for which the IC50 in experiment [1] (setting [5]) came out at 99.4 µM; in experiment [2] (setting [7]), 26.7 µM.

`CCOC(=O)C(NC(=O)c1ccc(OC)cc1)(N1CCOCC1)C(F)(F)F` (centres unmarked) [Compound C7.003]: in experiment [2] (setting [7]), the IC50 worked out at 90.2 µM.

As for `COc1ccc(C(=O)N/N=C\c2cc(Br)c(O)c(O)c2Br)cc1` [Compound C2.013], the IC50 in experiment [1] (first value of cell DPIV/APN, marked * = ID50 value, read-out: ID50 DPIV (marked with *)) came out at 94 µM.

As for `CCOC(=O)N1CCN(C(c2cccs2)c2c(C)[nH]c3ccccc23)CC1` (centres unmarked) [Compound C4.015], the IC50 in experiment [1] (setting [5]) turned out to be 49 µM; in experiment [2] (setting [7]) it was 25 µM.

`Cc1[nH]c2ccccc2c1C(c1ccccn1)N1CCN(c2ccc(F)cc2)CC1` (centres unmarked) [Compound C4.009]: the IC50 in experiment [1] (setting [5]) was 96 µM; in experiment [2] (setting [7]), 76 µM.

In the case of `COC(=O)C1=c2s/c(=C\c3ccco3)c(=O)n2C(N)=C(S(=O)(=O)c2ccccc2)C1c1ccco1` (centres unmarked) [Compound C16.010], in experiment [2] (setting [7]), the IC50 amounted to 100 µM.

As for `COC(=O)C1=c2s/c(=C\c3ccc(C)cc3)c(=O)n2C(N)=C(S(=O)(=O)c2ccccc2)C1c1ccc(C)cc1` (centres unmarked) [Compound C16.011], the IC50 in experiment [1] (setting [5]) worked out at 115 µM.

As for `CCCCC[C@H](CC(=O)NO)C(=O)N[C@H](C(=O)N1CCC[C@H]1CO)C(C)C` [actinonine], in experiment [3], the “reduction of the heaviness of the disease (score)” value is given as −16.5%. Moreover, in experiment [4], the “effect on the reduction of the average expiratory flux (EF50)” value was “showed a therapeutic effect”.

For `O=C(N/N=C/c1cc(Br)cc(Br)c1OC(=O)c1ccccc1)/C(=C/c1ccc2c(c1)OCO2)NC(=O)c1ccccc1` [Compound C4.006], the IC50 in experiment [1] (setting [5]) is 38.6 µM.

Regarding `Cc1[nH]c2ccccc2c1C(c1cccs1)N1CCC(C(N)=O)CC1` (centres unmarked) [Compound C4.014], the IC50 in experiment [1] (setting [5]) was 61 µM; in experiment [2] (setting [7]), 48 µM.

`Cc1[nH]c2ccccc2c1C(c1cccs1)N1CCCCC1` (centres unmarked) [Compound C4.017]: the IC50 worked out at 67 µM in experiment [1] (setting [5]) and 31 µM in experiment [2] (setting [7]).

`O=C(N/C(=C\c1ccco1)C(=O)N1CCCC(CO)C1)c1ccccc1` (centres unmarked) [Compound C8.020]: in experiment [1] (Table 8, first value of cell, marked * = ID50 value, read-out: ID50 DPIV (marked with *)), the IC50 worked out at 152 µM.

For `C=CCN1C(=O)C(C#N)=C(C)/C(=C\c2ccc(-c3cc(C)c(C)cc3[N+](=O)[O-])o2)C1=O` [Compound C8.012], the IC50 in experiment [1] (setting [6]) turned out to be 65.4 µM.

Take `Cc1[nH]c2ccccc2c1C(c1cccs1)N1CCCC1` (centres unmarked) [Compound C4.019]: the IC50 in experiment [1] (setting [5]) was 57 µM; in experiment [2] (setting [7]), 35 µM.

As to `COC(=O)C1=C(N)N2C(=O)CSC2=C(C(=O)OC(C)C)C1` [Compound C10.003], the IC50 in experiment [1] (setting [5]) is 10.8 µM.

For the compound `COc1ccc(C(=O)N/N=C/c2cc(O)c(O)c(Br)c2Br)cc1` [Compound C2.012], in experiment [2] (setting [8]), the IC50 was determined as 33.6 µM.

Turning to `Cc1ccc(/C=N/NC(=O)c2cccc(I)c2)o1` [Compound C2.010], the IC50 in experiment [1] (read-out: IC50 DPIV) was determined as 57.4 µM.

On to `O=C(N/C(=C\c1ccco1)C(=O)N1CCCC(CO)C1)c1ccccc1` (centres unmarked) [Compound C9.006], for which the IC50 in experiment [1] (setting [5]) is 152 µM.

With `Cc1ccc(C)n1-c1cccc(C(=O)N/N=C/c2cc(Br)c(O)c(Br)c2)c1` [Compound C2.007], the IC50 in experiment [1] (read-out: IC50 DPIV) was determined as 41.1 µM.

As to `COc1ccc(C(c2c(C)[nH]c3ccccc23)N2CCCC2)cc1` (centres unmarked) [Compound C4.016], the results for the IC50 in experiment [1] (setting [5]) and in experiment [2] (setting [7]) were 49 µM and 30 µM, respectively.

In the case of `Cc1[nH]c2ccccc2c1C(c1ccccn1)N1CCC(C(N)=O)CC1` (centres unmarked) [Compound C4.010], the IC50 is 54 µM in experiment [1] (setting [5]) and 42 µM in experiment [2] (setting [7]).

For the compound `CCOC(=O)C(NC(=O)c1ccc(OC)cc1)(N1CCOCC1)C(F)(F)F` (centres unmarked) [Compound C8.017], the IC50 in experiment [2] (Table 8, second value of cell, unmarked = IC-50, read-out: IC50 APN) came out at 90.2 µM.

As for `N[C@@H](CCCCNC(=O)OCc1ccc([N+](=O)[O-])cc1)C(=O)N1CCCC1` [Lys[Z(NO2)] pyrrolidide], the “reduction of the heaviness of the disease (score)” value in experiment [3] is −12.3%. Also, the “effect on the reduction of the average expiratory flux (EF50)” value in experiment [4] is “showed a therapeutic effect”.

`COc1ccc(OCC(=O)N/N=C/c2cc(Br)c(O)c(O)c2Br)c(Br)c1` [Compound C2.005]: the IC50 in experiment [1] (setting [5]) came out at 40.8 µM.

As for `CCOC(=O)C(NC(=O)c1ccc(OC)cc1)(N1CCCC1=O)C(F)(F)F` (centres unmarked) [Compound C7.002], the IC50 in experiment [1] (setting [5]) stood at 25.4 µM.

For the compound `Cc1[nH]c2ccccc2c1C(c1ccccn1)N1CCCCC1` (centres unmarked) [Compound C4.013], the values for the IC50 in experiment [1] (setting [5]) and in experiment [2] (setting [7]) were 74 µM and 78 µM, respectively.

Regarding `CCOC(=O)C1CCN(C(c2ccccn2)c2c(C)[nH]c3ccccc23)CC1` (centres unmarked) [Compound C4.007], the IC50 in experiment [1] (setting [5]) and in experiment [2] (setting [7]) was 32 µM in each case.

The compound `COc1cc(C)[n+](OC(=O)N(C)C)c(C)c1` [Compound C8.021] returned an IC50 in experiment [1] of 119 µM.

As to `CCOC(=O)C(NC(=O)c1cccc(Cl)c1)(Nc1ccccc1OC)C(F)(F)F` (centres unmarked) [Compound C7.001], the IC50 in experiment [1] (setting [5]) came to 18.9 µM; in experiment [2] (setting [7]), 21.7 µM.

Turning to `Cc1[nH]c2ccccc2c1C(c1cccs1)N1CCOCC1` (centres unmarked) [Compound C4.018], the results for the IC50 in experiment [1] (setting [5]) and in experiment [2] (setting [7]) were 61 µM and 32 µM, respectively.

Regarding `Cc1[nH]c2ccccc2c1C(c1ccccn1)N1CCN(c2ccccn2)CC1` (centres unmarked) [Compound C4.008], the IC50 came to 45 µM in experiment [1] (setting [5]) and 28 µM in experiment [2] (setting [7]).

For the compound `CN(C)CCNc1nc2c(c(=O)n(C)c(=O)n2C)n1Cc1ccccc1Cl` [Compound C8.002], in experiment [2] (Table 8, second value of cell, unmarked = IC-50), the “IC50 APN” value was 7.5/Inactive.

Consider `CCOC(=O)C(NC(=O)c1ccccc1)(N1CCOCC1)C(F)(F)F` (centres unmarked) [Compound C7.004], for which the IC50 in experiment [2] (setting [8]) was determined as 186 µM.

For `COC(=O)C1=C(N)N2C(=O)CSC2=C(C(=O)OC(C)C)C1` [Compound C16.001], the IC50 in experiment [1] (setting [5]) is 10.8 µM; in experiment [2] (setting [7]), 6.9 µM.

For `CCOC(=O)C1=c2s/c(=C\c3cccs3)c(=O)n2C(N)=C(S(=O)(=O)c2ccccc2)C1c1cccs1` (centres unmarked) [Compound C16.008], the IC50 in experiment [1] (setting [5]) was determined as 139 µM.

In the case of `Cc1[nH]c2ccccc2c1C(c1ccccn1)N1CCOCC1` (centres unmarked) [Compound C4.012], the figures for the IC50 in experiment [1] (setting [5]) and in experiment [2] (setting [7]) were 59 µM and 36 µM, respectively.
